Data published in patent US9518052B2, “Pyrazolopyridines and pyrazolopyrimidines” (Pfizer Inc., priority 2014, dated 2016).
Structures can show the parent of a compound that is named as a salt.

Legend:
Type in all cases: biochemical
Conditions in all cases: Caliper assay at 1 mM ATP
JAK3 = JAK3 (Homo sapiens (Human), UniProt P52333); assay: JAK Caliper Enzyme Assay at 1 mM ATP (JAK3)
Procedure: (§1) JAK Caliper Enzyme Assay at 1 mM ATP
(§2) Test article was solubilized in dimethyl sulfoxide (DMSO) to a stock concentration of 30 mM. An 11-point half log dilution series was created in DMSO with a top concentration of 600 μM. […] The compound plates were diluted 1 to 60 resulting in a top final assay compound concentration of 10 μM and a 2% DMSO concentration.
(§3) Test article and assay controls were added to a 384-well plate. Reaction mixtures contained 20 mM HEPES, pH 7.4, 10 mM magnesium chloride, 0.01% bovine serum albumin (BSA), 0.0005% Tween 20, 1 mM ATP and 1 μM peptide substrate. […] Enzyme concentrations and incubation times were optimized for each new enzyme preps and were modified slightly over time to ensure 20%-30% phosphorylation. The assays were stopped with a final concentration of 10 mM EDTA, 0.1% Coating Reagent and 100 mM HEPES, pH=7.4. The assay plates were placed on a Caliper Life Science Lab Chip 3000 (LC3000) instrument, and each well was sampled using appropriate separation conditions to measure the unphosphorylated and phosphorylated peptide.

JAK1 = JAK1 (Homo sapiens (Human), UniProt P23458); assay: JAK Caliper Enzyme Assay at 1 mM ATP (JAK1)
Chain of JAK1 (P23458 whole entry, species assumed): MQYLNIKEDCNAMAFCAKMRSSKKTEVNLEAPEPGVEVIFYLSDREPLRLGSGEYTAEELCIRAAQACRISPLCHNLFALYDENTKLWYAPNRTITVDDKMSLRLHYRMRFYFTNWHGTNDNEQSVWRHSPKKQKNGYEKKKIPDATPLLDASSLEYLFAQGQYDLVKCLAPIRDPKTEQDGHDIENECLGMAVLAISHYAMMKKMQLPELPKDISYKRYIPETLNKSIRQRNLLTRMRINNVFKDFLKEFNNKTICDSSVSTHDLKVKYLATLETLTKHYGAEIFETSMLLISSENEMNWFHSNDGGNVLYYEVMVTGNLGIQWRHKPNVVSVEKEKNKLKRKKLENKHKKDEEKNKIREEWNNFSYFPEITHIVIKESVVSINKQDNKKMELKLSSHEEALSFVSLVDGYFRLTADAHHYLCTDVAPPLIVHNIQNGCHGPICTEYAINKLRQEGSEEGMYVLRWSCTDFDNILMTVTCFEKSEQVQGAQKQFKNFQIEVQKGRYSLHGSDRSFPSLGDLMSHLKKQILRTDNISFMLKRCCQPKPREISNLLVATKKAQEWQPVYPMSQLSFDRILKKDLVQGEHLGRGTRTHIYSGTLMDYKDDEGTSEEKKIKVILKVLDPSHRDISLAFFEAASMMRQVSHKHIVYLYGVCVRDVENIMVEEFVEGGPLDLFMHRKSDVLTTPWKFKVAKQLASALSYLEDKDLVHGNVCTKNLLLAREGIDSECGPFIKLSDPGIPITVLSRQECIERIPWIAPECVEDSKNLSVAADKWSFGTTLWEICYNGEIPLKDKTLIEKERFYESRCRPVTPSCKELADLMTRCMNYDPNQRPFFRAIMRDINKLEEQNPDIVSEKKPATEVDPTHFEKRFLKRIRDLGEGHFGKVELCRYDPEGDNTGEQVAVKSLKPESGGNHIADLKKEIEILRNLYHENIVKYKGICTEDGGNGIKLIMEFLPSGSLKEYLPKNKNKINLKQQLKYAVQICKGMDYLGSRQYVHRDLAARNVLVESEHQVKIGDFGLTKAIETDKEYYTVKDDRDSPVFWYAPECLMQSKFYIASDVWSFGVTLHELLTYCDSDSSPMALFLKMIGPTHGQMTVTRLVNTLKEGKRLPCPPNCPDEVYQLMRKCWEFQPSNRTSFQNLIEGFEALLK
Procedure: as §1, §2, §3

JAK2 = JAK2 (Homo sapiens (Human), UniProt O60674); assay: JAK Caliper Enzyme Assay at 1 mM ATP (JAK2)
Chain of JAK2 (O60674 whole entry, species assumed): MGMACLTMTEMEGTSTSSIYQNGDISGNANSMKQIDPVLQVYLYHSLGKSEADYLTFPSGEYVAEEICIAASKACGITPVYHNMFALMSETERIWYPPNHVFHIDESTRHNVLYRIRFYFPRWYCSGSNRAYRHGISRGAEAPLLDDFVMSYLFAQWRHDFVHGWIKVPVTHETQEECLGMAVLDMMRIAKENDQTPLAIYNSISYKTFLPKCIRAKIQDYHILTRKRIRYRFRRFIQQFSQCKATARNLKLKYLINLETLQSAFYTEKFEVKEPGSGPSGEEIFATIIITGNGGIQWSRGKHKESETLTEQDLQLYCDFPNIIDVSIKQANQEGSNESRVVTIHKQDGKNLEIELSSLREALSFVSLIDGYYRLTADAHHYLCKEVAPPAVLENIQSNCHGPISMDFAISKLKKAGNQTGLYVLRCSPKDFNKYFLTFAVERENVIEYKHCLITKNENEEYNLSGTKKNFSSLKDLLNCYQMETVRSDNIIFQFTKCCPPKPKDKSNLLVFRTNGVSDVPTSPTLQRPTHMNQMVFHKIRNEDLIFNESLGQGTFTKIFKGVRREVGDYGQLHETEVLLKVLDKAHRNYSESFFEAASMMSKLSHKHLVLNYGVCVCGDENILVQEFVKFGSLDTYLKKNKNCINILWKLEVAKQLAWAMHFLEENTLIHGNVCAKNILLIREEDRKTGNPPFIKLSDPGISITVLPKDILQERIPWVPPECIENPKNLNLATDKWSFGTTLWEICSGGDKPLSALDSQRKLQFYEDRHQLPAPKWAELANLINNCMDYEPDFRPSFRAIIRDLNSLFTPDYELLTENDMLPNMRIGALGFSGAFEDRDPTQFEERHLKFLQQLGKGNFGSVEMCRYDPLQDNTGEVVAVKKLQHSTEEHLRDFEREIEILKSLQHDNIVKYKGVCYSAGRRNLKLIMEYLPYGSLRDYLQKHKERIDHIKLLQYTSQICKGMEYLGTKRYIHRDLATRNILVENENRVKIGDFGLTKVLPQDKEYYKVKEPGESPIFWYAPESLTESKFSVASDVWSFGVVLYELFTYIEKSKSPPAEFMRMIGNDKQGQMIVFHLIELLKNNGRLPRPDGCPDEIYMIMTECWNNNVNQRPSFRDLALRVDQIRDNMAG
Procedure: as §1, §2, §3

TYK2 = TYK2 (Homo sapiens (Human), UniProt P29597); assay: JAK Caliper Enzyme Assay at 1 mM ATP (TYK2)
Chain of TYK2 (P29597 whole entry, species assumed): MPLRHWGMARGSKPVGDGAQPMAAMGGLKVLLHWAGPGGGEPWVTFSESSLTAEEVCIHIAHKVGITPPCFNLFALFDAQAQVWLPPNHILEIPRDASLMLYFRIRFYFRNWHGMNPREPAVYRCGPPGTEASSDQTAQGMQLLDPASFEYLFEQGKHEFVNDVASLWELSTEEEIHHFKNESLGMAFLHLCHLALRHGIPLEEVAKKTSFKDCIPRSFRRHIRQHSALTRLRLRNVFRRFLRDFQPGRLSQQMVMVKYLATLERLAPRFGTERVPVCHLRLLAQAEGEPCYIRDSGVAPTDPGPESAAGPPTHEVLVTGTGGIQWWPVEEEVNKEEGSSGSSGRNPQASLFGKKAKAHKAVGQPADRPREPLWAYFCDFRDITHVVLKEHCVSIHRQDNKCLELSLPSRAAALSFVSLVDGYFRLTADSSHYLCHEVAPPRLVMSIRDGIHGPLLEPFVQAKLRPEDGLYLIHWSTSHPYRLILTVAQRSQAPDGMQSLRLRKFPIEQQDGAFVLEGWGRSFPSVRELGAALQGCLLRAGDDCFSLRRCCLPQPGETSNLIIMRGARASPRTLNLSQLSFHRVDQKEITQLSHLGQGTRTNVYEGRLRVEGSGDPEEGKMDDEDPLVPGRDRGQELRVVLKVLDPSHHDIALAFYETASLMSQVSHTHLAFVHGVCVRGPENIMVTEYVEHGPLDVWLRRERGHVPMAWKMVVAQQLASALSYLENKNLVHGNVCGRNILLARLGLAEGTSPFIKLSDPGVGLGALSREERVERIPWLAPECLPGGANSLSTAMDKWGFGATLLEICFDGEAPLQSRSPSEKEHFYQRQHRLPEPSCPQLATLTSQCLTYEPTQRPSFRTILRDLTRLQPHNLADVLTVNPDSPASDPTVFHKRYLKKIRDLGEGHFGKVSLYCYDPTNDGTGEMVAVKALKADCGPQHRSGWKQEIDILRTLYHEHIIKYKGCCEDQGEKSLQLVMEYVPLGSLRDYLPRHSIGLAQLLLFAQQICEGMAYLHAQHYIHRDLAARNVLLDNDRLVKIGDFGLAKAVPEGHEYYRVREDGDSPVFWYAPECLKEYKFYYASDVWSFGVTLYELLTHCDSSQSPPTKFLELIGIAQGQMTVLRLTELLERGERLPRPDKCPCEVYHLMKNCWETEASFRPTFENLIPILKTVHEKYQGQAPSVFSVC
Procedure: as §1, §2, §3

Chain of JAK3 (P52333 whole entry, species assumed): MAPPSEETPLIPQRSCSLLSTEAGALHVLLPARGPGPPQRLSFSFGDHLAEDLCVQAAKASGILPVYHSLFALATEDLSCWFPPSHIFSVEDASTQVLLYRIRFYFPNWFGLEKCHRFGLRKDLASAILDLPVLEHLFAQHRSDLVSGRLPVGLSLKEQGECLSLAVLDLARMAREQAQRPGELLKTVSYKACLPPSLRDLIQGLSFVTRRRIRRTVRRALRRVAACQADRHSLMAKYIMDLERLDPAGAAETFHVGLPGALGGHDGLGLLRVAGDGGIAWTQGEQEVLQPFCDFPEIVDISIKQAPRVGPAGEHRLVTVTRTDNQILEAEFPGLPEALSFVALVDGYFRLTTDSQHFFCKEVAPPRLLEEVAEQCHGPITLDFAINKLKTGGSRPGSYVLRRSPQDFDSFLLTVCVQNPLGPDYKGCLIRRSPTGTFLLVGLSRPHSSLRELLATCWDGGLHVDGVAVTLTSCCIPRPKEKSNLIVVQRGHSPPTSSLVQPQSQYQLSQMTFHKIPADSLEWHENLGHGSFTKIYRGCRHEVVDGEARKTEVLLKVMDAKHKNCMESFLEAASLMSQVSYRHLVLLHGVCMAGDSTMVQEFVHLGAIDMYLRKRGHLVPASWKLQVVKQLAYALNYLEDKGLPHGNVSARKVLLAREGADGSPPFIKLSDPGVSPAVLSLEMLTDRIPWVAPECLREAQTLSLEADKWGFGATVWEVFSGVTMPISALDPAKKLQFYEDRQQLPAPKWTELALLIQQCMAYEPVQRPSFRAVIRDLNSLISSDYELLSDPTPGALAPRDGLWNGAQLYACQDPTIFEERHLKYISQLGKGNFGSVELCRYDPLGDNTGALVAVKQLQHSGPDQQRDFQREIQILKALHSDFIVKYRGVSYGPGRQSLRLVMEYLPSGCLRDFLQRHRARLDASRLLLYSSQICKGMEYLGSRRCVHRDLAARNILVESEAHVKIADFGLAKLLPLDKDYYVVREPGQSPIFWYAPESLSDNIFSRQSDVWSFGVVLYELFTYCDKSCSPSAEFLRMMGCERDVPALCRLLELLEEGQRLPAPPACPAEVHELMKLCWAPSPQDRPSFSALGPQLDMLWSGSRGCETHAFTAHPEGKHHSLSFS

| SMILES | IC50 (JAK3) [nM] | IC50 (JAK1) [nM] | IC50 (JAK2) [nM] | IC50 (TYK2) [nM] |
| --- | --- | --- | --- | --- |
| CN(c1ncc(Cl)cc1CNc1nc(-c2cc(F)c(O)cc2CC(F)(F)F)cc2[nH]nc(C(N)=O)c12)S(C)(=O)=O [Example 72, 4-[({5-chloro-2-[methyl(methylsulfonyl)amino]pyridin-3-yl}methyl)amino]-6-[5-fluoro-4-hydroxy-2-(2,2,2-trifluoroethyl)phenyl]-1H-pyrazolo[4,3-c]pyridine-3-carboxamide] | 198 | 44.8 | 135 | 3450 |
| CCN(c1nccnc1CNc1nc(-c2cc(F)c(O)cc2CC(F)(F)F)cc2[nH]nc(C(N)=O)c12)S(C)(=O)=O [Example 80, 4-[({3-[ethyl(methylsulfonyl)amino]pyrazin-2-yl}methyl)amino]-6-[5-fluoro-4-hydroxy-2-(2,2,2-trifluoroethyl)phenyl]-1H-pyrazolo[4,3-c]pyridine-3-carboxamide] | 49.2 | 2.9 | 16.2 | 167 |
| CCc1cc(O)c(F)cc1-c1cc2[nH]ncc2c(N(C)Cc2ccccc2N(C)S(C)(=O)=O)n1 [Example 146, N-[2-({[6-(2-Ethyl-5-fluoro-4-hydroxyphenyl)-1H-pyrazolo[4,3-c]pyridin-4-yl](methyl)amino}methyl)phenyl]-N-methylmethanesulfonamide hydrochloride] | 19.1 | 0.9 | 5.1 | 49.9 |
| CN(c1ccccc1CNc1nc(-c2cc(F)c(O)cc2CC(F)(F)F)cc2[nH]nc(C(N)=O)c12)S(=O)(=O)c1ccc(N2CCOCC2)nc1 [Example 65, 6-[5-fluoro-4-hydroxy-2-(2,2,2-trifluoroethyl)phenyl]-4-{[2-(methyl{[6-(morpholin-4-yl)pyridin-3-yl]sulfonyl}amino)benzyl]amino}-1H-pyrazolo[4,3-c]pyridine-3-carboxamide] | 283 | 23.3 | 83.8 | 126 |
| CCc1cc(O)c(F)cc1-c1cc2[nH]ncc2c(N(CC)Cc2cc(C)ccc2N(C)S(C)(=O)=O)n1 [Example 143, N-[2-({ethyl[6-(2-ethyl-5-fluoro-4-hydroxyphenyl)-1H-pyrazolo[4,3-c]pyridin-4-yl]amino}methyl)-4-methylphenyl]-N-methylmethanesulfonamide] | 122 | 40.4 | 43.6 | 4660 |
| CN(c1ccc(O)cc1CNc1nc(-c2cc(F)c(O)cc2CC(F)(F)F)cc2[nH]nc(C(N)=O)c12)S(C)(=O)=O [Example 92, 6-[5-Fluoro-4-hydroxy-2-(2,2,2-trifluoroethyl)phenyl]-4-({5-hydroxy-2-[methyl(methylsulfonyl)amino]benzyl}amino)-1H-pyrazolo[4,3-c]pyridine-3-carboxamide] | 45.7 | 2.1 | 13.5 | 14.5 |
| CCCCN(c1ccccc1CNc1nc(-c2cc(F)c(O)cc2CC)cc2[nH]ncc12)S(C)(=O)=O [Example 139] | 27.5 | – | 16.7 | 1990 |
| CCc1cc(O)ccc1-c1cc2[nH]ncc2c(N2CCC(OC)CC2)n1 [Example 128, 3-ethyl-4-[4-(4-methoxypiperidin-1-yl)-1H-pyrazolo[4,3-c]pyridin-6-yl]phenol diethylamine salt] | – | 3.6 | 12.6 | 514 |
| CCc1cc(O)ccc1-c1cc2[nH]ncc2c(NCc2c(C)cccc2N(C)S(C)(=O)=O)n1 [Example 127, N-[2-({[6-(2-ethyl-4-hydroxyphenyl)-1H-pyrazolo[4,3-c]pyridin-4-yl]amino}methyl)-3-methylphenyl]-N-methylmethanesulfonamide diethylamine salt] | – | 6 | 14.9 | 625 |

Continued by falling IC50 (JAK3), values first:

| IC50 (JAK3) [nM] | IC50 (JAK1) [nM] | IC50 (JAK2) [nM] | IC50 (TYK2) [nM] | SMILES |
| --- | --- | --- | --- | --- |
| 839 | 60.4 | 277 | 373 | CNC(=O)c1n[nH]c2cc(-c3cc(F)c(O)cc3CC(F)(F)F)nc(NCc3ccccc3N(C)S(=O)(=O)c3cccc(O)c3)c12 [Example 32, 6-[5-Fluoro-4-hydroxy-2-(2,2,2-trifluoroethyl)phenyl]-4-[(2-{[(3-hydroxyphenyl)sulfonyl](methyl)amino}benzyl)amino]-N-methyl-1H-pyrazolo[4,3-c]pyridine-3-carboxamide] |
| 257 | 16.2 | 63.7 | 66.8 | CNC(=O)c1n[nH]c2cc(-c3cc(F)c(O)cc3CC(F)(F)F)nc(NCc3ccccc3N(C)S(=O)(=O)c3ccc(C)nc3)c12 [Example 69, 6-[5-fluoro-4-hydroxy-2-(2,2,2-trifluoroethyl)phenyl]-N-methyl-4-[(2-{methyl[(6-methylpyridin-3-yl)sulfonyl]amino}benzyl)amino]-1H-pyrazolo[4,3-c]pyridine-3-carboxamide] |
| 156 | 7.8 | 47.2 | 81.4 | CCS(=O)(=O)N(C)c1ccccc1CNc1nc(-c2cc(F)c(O)cc2CC(F)(F)F)cc2[nH]nc(C(N)=O)c12 [Example 85, 6-(5-fluoro-4-hydroxy-2-(2,2,2-trifluoroethyl)phenyl)-4-((2-(N-methylethyl-sulfonamido)benzyl)-amino)-1H-pyrazolo[4,3-c]pyridine-3-carboxamide] |
| 110 | 7.3 | 30.2 | 52.3 | CN(c1ccccc1CNc1nc(-c2cc(F)c(O)cc2CC(F)(F)F)cc2[nH]nc(C(N)=O)c12)S(=O)(=O)c1cccnc1 [Example 61, 6-[5-fluoro-4-hydroxy-2-(2,2,2-trifluoroethyl)phenyl]-4-({2-[methyl(pyridin-3-ylsulfonyl)amino]benzyl}amino)-1H-pyrazolo[4,3-c]pyridine-3-carboxamide] |
| 83.3 | 4.3 | 18.5 | 16.1 | CCc1cc(O)c(F)cc1-c1cc2[nH]nc(-c3nc(C)c[nH]3)c2c(NCc2ccccc2N(C)S(C)(=O)=O)n1 [Example 159, N-[2-({[6-(2-Ethyl-5-fluoro-4-hydroxyphenyl)-3-(4-methyl-1H-imidazol-2-yl)-1H-pyrazolo[4,3-c]pyridin-4-yl]amino}methyl)phenyl]-N-methylmethanesulfonamide] |
| 82.4 | 6.7 | 27 | 89.3 | CCc1cc(O)c(F)cc1-c1nc(NCc2ccccc2N(C)S(=O)(=O)c2ccccc2)c2c(C(N)=O)n[nH]c2n1 [Example 95, 6-(2-Ethyl-5-fluoro-4-hydroxyphenyl)-4-((2-(N-methylphenylsulfonamido)benzyl)amino)-1H-pyrazolo[3,4-d]pyrimidine-3-carboxamide] |
| 77.8 | 21.6 | 48.9 | 4160 | Cc1ccc(N(C)S(C)(=O)=O)c(CNc2nc(-c3cc(F)c(O)cc3CC(F)(F)F)cc3[nH]ncc23)c1 [Example 150, N-{2-[({6-[5-Fluoro-4-hydroxy-2-(2,2,2-trifluoroethyl)phenyl]-1H-pyrazolo[4,3-c]pyridin-4-yl}amino)methyl]-4-methylphenyl}-N-methylmethanesulfonamide] |
| 63.6 | 3.3 | 15.1 | 27.1 | CN(c1ccccc1CNc1nc(-c2cc(F)c(O)cc2CC(F)(F)F)cc2[nH]nc(C(N)=O)c12)S(C)(=O)=O [Example 77, 6-[5-Fluoro-4-hydroxy-2-(2,2,2-trifluoroethyl)phenyl]-4-({2-[methyl(methylsulfonyl)amino]benzyl}amino)-1H-pyrazolo[4,3-c]pyridine-3-carboxamide] |
| 54.3 | 10.6 | 28.4 | 320 | CN(c1ccccc1CNc1nc(-c2cc(F)c(O)cc2C2CC2)cc2[nH]nc(C(N)=O)c12)S(C)(=O)=O [Example 47, 6-(2-cyclopropyl-5-fluoro-4-hydroxyphenyl)-4-({2-[methyl(methylsulfonyl)amino]benzyl}amino)-1H-pyrazolo[4,3-c]pyridine-3-carboxamide] |
| 23.3 | 3.8 | 10.1 | 163 | CCc1cc(O)ccc1-c1cc2[nH]ncc2c(N2CCc3ccc(S(=O)(=O)NCCN4CCCC4)cc3C2)n1 [Example 116, 2-[6-(2-ethyl-4-hydroxyphenyl)-1H-pyrazolo[4,3-c]pyridin-4-yl]-N-[2-(pyrrolidin-1-yl)ethyl]-1,2,3,4-tetrahydroisoquinoline-7-sulfonamide formate] |
| 23.3 | 1 | 5.8 | 29 | CCc1cc(O)c(F)cc1-c1cc2[nH]nc(C(N)=O)c2c(NCc2ccc(O)cc2N(C)S(C)(=O)=O)n1 [Example 30, 6-(2-Ethyl-5-fluoro-4-hydroxyphenyl)-4-({4-hydroxy-2-[methyl(methylsulfonyl)amino]benzyl}amino)-1H-pyrazolo[4,3-c]pyridine-3-carboxamide] |
| 18.5 | 1.1 | 4.7 | 49.4 | CCc1cc(O)c(F)cc1-c1cc2[nH]ncc2c(NCc2ccccc2N(CCO)S(C)(=O)=O)n1 [Example 147, N-[2-({[6-(2-Ethyl-5-fluoro-4-hydroxyphenyl)-1H-pyrazolo[4,3-c]pyridin-4-yl]amino}methyl)phenyl]-N-(2-hydroxyethyl)methanesulfonamide] |
